EC50 and Emax data for 21 compounds are collected here from US20220306617A1, “SUBSTITUTED 1,3-PHENYL HETEROARYL DERIVATIVES AND THEIR USE IN THE TREATMENT OF DISEASE” (NOVARTIS AG, priority 2019, published 2022).

The EC50 is the concentration at which the effect is half-maximal.

This assay addresses T1, abc isoform of human TMEM16A channel expressed in CHO cells (Homo sapiens, UniProt Q5XXA6, DEL476-501).
T1 construct: expressed in transfected cells; host or cells: CHO cells, doxycycline-inducible expression under Blasticidin/Zeocin selection
T1 sequence (Q5XXA6 with tags, fused parts or gaps isoform Q5XXA6-5 DEL539-564): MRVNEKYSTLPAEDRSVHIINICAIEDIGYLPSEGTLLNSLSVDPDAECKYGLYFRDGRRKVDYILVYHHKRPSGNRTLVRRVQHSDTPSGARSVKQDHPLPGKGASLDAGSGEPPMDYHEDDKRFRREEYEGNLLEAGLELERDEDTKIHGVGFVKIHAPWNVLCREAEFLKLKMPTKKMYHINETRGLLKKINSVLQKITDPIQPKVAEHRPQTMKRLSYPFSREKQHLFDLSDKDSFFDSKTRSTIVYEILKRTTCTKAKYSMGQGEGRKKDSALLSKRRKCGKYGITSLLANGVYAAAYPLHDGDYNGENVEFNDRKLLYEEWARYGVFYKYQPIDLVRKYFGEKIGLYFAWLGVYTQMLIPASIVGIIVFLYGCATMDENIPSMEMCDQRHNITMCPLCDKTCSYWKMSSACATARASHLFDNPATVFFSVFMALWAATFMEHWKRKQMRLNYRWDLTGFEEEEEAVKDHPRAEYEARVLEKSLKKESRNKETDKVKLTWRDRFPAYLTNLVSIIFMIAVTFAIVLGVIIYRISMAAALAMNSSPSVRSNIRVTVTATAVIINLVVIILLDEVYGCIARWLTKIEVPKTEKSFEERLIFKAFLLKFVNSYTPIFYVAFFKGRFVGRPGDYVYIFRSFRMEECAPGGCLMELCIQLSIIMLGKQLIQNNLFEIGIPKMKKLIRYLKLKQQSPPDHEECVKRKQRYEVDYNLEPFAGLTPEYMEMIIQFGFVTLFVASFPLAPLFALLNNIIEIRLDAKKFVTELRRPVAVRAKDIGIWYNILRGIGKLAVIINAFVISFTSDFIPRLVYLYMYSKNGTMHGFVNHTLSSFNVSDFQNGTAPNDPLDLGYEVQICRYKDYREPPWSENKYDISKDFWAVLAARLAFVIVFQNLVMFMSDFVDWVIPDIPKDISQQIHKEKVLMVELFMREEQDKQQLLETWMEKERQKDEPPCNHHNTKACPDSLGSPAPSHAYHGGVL
Put plainly: Automated patch clamping (QPatch) assay to measure TMEM16A activity in whole-cell. The assay is classed as cell-based. Particulars: for EC50: CHO cells expressing human TMEM16A (abc), whole-cell automated patch clamp, Hill fit, read-out: TMEM16A QPATCH assay EC50 V3 EC50; for Emax: CHO, maximum current at highest dose relative to reference potentiator at maximal concentration (upper limit) and vehicle (lower limit), read-out: TMEM16A QPATCH assay EC50 V3 Assay Window (% TMEM16A max activation). The procedure, abridged:
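Whole-cell currents were recorded by planar automated patch clamp from induced CHO cells (doxycycline 1 μg/mL, 18-24 h), using a −70 mV hold, +70 mV step and −90 to +70 mV ramp. Values: Hill-fitted EC50, and activation scaled between vehicle current and reference-potentiator maximum; 0.3% DMSO final.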
(In patch-clamp work, channel activity is measured electrically.)

Structures can show the parent of a compound that is named as a salt.

As for `CCC(CC)NC(=O)c1cc(-c2cccc(-c3ncc(C(=O)N[C@H](C(=O)OC(C)(C)C)c4ccccc4)o3)c2)[nH]n1` [Example 1.37, (S)-Tert-Butyl 2-(2-(3-(3-(Pentan-3-Ylcarbamoyl)-1H-Pyrazol-5-yl)Phenyl)Oxazole-5-Carboxamido)-2-Phenylacetate], the EC50 worked out at 200 nM and the Emax was found to be 81%.

Regarding `CCOC(=O)[C@H](Cc1ccccc1)NC(=O)c1cnc(-c2cccc(-c3cc(C(=O)NC(CC)CC)n[nH]3)c2)o1` [Example 1.38, (S)-Ethyl 2-(2-(3-(3-(Pentan-3-Ylcarbamoyl)-1 H-Pyrazol-5-yl)Phenyl)Oxazole-5-Carboxamido)-3-Phenylpropanoate], the EC50 was found to be 900 nM and the Emax was 61%.

In the case of `CCC(CC)NC(=O)c1cc(-c2cccc(-c3ncc(C(=O)N[C@@H](C(=O)OC)c4ccccc4)o3)c2)[nH]n1` [Example 1.39, (R)-Methyl 2-(2-(3-(3-(Pentan-3-Ylcarbamoyl)-1H-Pyrazol-5-yl)Phenyl)Oxazole-5-Carboxamido)-2-Phenylacetate], the EC50 stood at 880 nM and the Emax came to 66%.

With `CCC(CC)NC(=O)c1cc(-c2cccc(-c3ncc(C(=O)N[C@H](C)C4CC4)o3)c2)[nH]n1` [Example 1.40, (R)-N-(1-Cyclopropylethyl)-2-(3-(5-(Pentan-3-Ylcarbamoyl)-1H-Pyrazol-3-yl)Phenyl)Oxazole-5-Carboxamide], the EC50 stood at 160 nM and the Emax stood at 93%.

With `CCC(CC)NC(=O)c1cc(-c2cccc(-c3ncc(C(=O)N[C@@H](C)C(=O)OCc4ccccc4)o3)c2)[nH]n1` [Example 1.41, (S)-Benzyl 2-(2-(3-(3-(Pentan-3-Ylcarbamoyl)-1H-Pyrazol-5-yl)Phenyl)Oxazole-5-Carboxamido)Propanoate], the half-maximal effective concentration (EC50) is 950 nM and the Emax turned out to be 75%.

In the case of `CCC(CC)NC(=O)c1cc(-c2cccc(-c3ncc(C(=O)N[C@H](C)C4CCCCC4)o3)c2)[nH]n1` [Example 1.42, (R)-N-(1-Cyclohexylethyl)-2-(3-(3-(Pentan-3-Ylcarbamoyl)-1 H-Pyrazol-5-yl)Phenyl)Oxazole-5-Carboxamide], the 50% effective concentration (EC50) was 750 nM and the Emax came out at 72%.

For `CCC(CC)NC(=O)c1cc(-c2cccc(-c3ncc(C(=O)NCc4c(F)cccc4F)o3)c2)[nH]n1` [Example 1.43, N-(2,6-Difluorobenzyl)-2-(3-(3-(Pentan-3-Ylcarbamoyl)-1H-Pyrazol-5-yl)Phenyl)Oxazole-5-Carboxamide], the EC50 turned out to be 430 nM and the Emax turned out to be 70%.

On to `CCOC(=O)[C@H](NC(=O)c1cnc(-c2cccc(-c3cc(C(=O)NC(CC)CC)[nH]n3)c2)o1)C(C)C` [Example 1.44, (R)-Ethyl 3-Methyl-2-(2-(3-(5-(Pentan-3-Ylcarbamoyl)-1H-Pyrazol-3-yl)Phenyl)Oxazole-5-Carboxamido)Butanoate], for which the EC50 is 510 nM and the Emax stood at 69%.

Regarding `CCC(CC)NC(=O)c1cc(-c2cccc(-c3ncc(C(=O)N[C@@H](C)CC)o3)c2)[nH]n1` [Example 1.45, (S)-N-(Sec-Butyl)-2-(3-(3-(Pentan-3-Ylcarbamoyl)-1H-Pyrazol-5-Yl)Phenyl)Oxazole-5-Carboxamide], the EC50 was 710 nM and the Emax came out at 75%.

With `CCC(CC)NC(=O)c1cc(-c2cccc(-c3ncc(C(=O)N[C@H](C)C(C)C)o3)c2)[nH]n1` [Example 1.46, (R)-N-(3-Methylbutan-2-Yl)-2-(3-(3-(Pentan-3-Ylcarbamoyl)-1 H-Pyrazol-5-yl)Phenyl)Oxazole-5-Carboxamide], the EC50 worked out at 990 nM and the Emax amounted to 19%.

`CCC(CC)NC(=O)c1cc(-c2cccc(-c3ncc(C(=O)N[C@H](C(=O)OC)C(C)C)o3)c2)[nH]n1` [Example 1.47, (S)-Methyl 3-Methyl-2-(2-(3-(3-(Pentan-3-Ylcarbamoyl)-1H-Pyrazol-5-yl)Phenyl)Oxazole-5-Carboxamido)Butanoate]: the concentration for a half-maximal effect (EC50) was found to be 150 nM and the Emax was 75%.

As to `CCC(NC(=O)c1cnc(-c2cccc(-c3cc(C(=O)N[C@@H](C)C4CC4)[nH]n3)c2)o1)C1CC1` (stereo partly drawn) [Example 1.48, 2-(3-(5-(((S)-1-Cyclopropylethyl)Carbamoyl)-1H-Pyrazol-3-Yl)Phenyl)-N-(1-Cyclopropylpropyl)Oxazole-5-Carboxamide], the 50% effective concentration (EC50) was 70 nM and the Emax was found to be 59%.

Turning to `COC(=O)C1(NC(=O)c2cnc(-c3cccc(-c4cc(C(=O)N[C@@H](C)C5CC5)[nH]n4)c3)o2)CCC1` [Example 1.49, (S)-Methyl 1-(2-(3-(5-((1-Cyclopropylethyl)Carbamoyl)-1H-Pyrazol-3-Yl)Phenyl)Oxazole-5-Carboxamido)Cyclobutanecarboxylate], the concentration for a half-maximal effect (EC50) came to 400 nM and the Emax was found to be 70%.

As to `CCC(CC)NC(=O)c1cc(-c2cccc(-c3ncc(C(=O)N[C@@H](COC(C)(C)C)C(=O)OC(C)(C)C)o3)c2)[nH]n1` [Example 1.50, (S)-Tert-Butyl 3-(Tert-Butoxy)-2-(2-(3-(3-(Pentan-3-Ylcarbamoyl)-1H-Pyrazol-5-Yl)Phenyl)Oxazole-5-Carboxamido)Propanoate Trifluoroacetate], the EC50 was 450 nM and the Emax came to 115%.

With `CCOC(=O)C(C)(C)NC(=O)c1cnc(-c2cccc(-c3cc(C(=O)NC(CC)CC)n[nH]3)c2)o1` [Example 1.51, Ethyl 2-Methyl-2-(2-(3-(3-(Pentan-3-Ylcarbamoyl)-1H-Pyrazol-5-Yl)Phenyl)Oxazole-5-Carboxamido)Propanoate Trifluoroacetate], the 50% effective concentration (EC50) amounted to 980 nM and the Emax came out at 64%.

For the compound `CCOC(=O)[C@@H](NC(=O)c1cnc(-c2cccc(-c3cc(C(=O)N[C@@H](C(=O)OC)C(C)C)[nH]n3)c2)o1)C(C)C` [Example 2.0, (S)-Ethyl 2-(2-(3-(5-(((R)-1-Methoxy-3-Methyl-1-Oxobutan-2-Yl)Carbamoyl)-1 H-Pyrazol-3-Yl)Phenyl)Oxazole-5-Carboxamido)-3-Methylbutanoate], the EC50 is 140 nM and the Emax is 87%.

In the case of `CCOC(=O)[C@@H](NC(=O)c1cnc(-c2cccc(-c3cc(C(=O)N[C@@H](CC(C)C)C(=O)OC)n[nH]3)c2)o1)C(C)C` [Example 2.1, (S)-Methyl 2-(5-(3-(5-(((S)-1-Ethoxy-3-Methyl-1-Oxobutan-2-yl)Carbamoyl)Oxazol-2-Yl)Phenyl)-1H-Pyrazole-3-Carboxamido)-4-Methylpentanoate], the EC50 amounted to 30 nM and the Emax amounted to 83%.

Take `CCOC(=O)[C@@H](NC(=O)c1cc(-c2cccc(-c3ncc(C(=O)N[C@H](C(=O)OCC)C(C)C)o3)c2)[nH]n1)C(C)C` [Example 2.2, (S)-Ethyl 2-(2-(3-(3-(((S)-1-Ethoxy-3-Methyl-1-Oxobutan-2-Yl)Carbamoyl)-1 H-Pyrazol-5-Yl)Phenyl)Oxazole-5-Carboxamido)-3-Methylbutanoate]: the half-maximal effective concentration (EC50) is 32 nM and the Emax is 112%.

Consider `CCOC(=O)[C@@H](NC(=O)c1cnc(-c2cccc(-c3cc(C(=O)NC(C(F)F)C4CC4)[nH]n3)c2)o1)C(C)C` (stereo partly drawn) [Example 2.4, (2S)-Ethyl 2-(2-(3-(5-((1-Cyclopropyl-2,2-Difluoroethyl)Carbamoyl)-1H-Pyrazol-3-Yl)Phenyl)Oxazole-5-Carboxamido)-3-Methylbutanoate], for which the 50% effective concentration (EC50) was found to be 20 nM and the Emax came to 99%.

Take `C[C@H](NC(=O)c1cc(-c2cccc(-c3ncc(C(=O)N[C@@H](C)C4CC4)o3)c2)[nH]n1)C1CC1` [Example 2.5, N-((S)-1-Cyclopropylethyl)-2-(3-(3-(((S)-1-Cyclopropylethyl)Carbamoyl)-1H-Pyrazol-5-Yl)Phenyl)Oxazole-5-Carboxamide]: the EC50 was 10 nM and the Emax amounted to 32%.

Turning to `CCC(CC)NC(=O)c1cnc(-c2cccc(-c3cc(C(=O)NC(COC)C4CC4)n[nH]3)c2)o1` (stereo not drawn) [Example 3.1, 2-(3-(3-((1-Cyclopropyl-2-Methoxyethyl)Carbamoyl)-1H-Pyrazol-5-Yl)Phenyl)-N-(Pentan-3-Yl)Oxazole-5-Carboxamide], the EC50 came out at 300 nM and the Emax was found to be 140%.
